Results from patent publication US20120172438A1, “GLYCYRRHETINIC ACID ESTER DERIVATIVE SYNTHESIS METHOD AND DEOXOGLYCYRRHETINIC ACID ESTER COMPOUND” (priority 2009, published 2012).
Marks after values point to notes of the source that are not given here.

Experiments:
[1] = tested on: D-Galn induced acute liver injury; assay: D-Galn induced acute liver injury mouse model; type: in vivo, ICR male mice
Protocol: 1. Comparison of therapeutic effects of ethyl 11-deoxy-18α-glycyrrhetinate and compound glycyrrhizin injection on ICR male mouse models of the D-Galn induced acute liver injury
Methods: 60 ICR male mice were randomly divided into 6 groups of 10 mice in each group: the model group, compound glycyrrhizin injection group (60 mg/kg), compound glycyrrhizin gastric infusion group (240 mg /kg), high dose of ethyl 11-deoxy-18α-glycyrrhetinate group (240 mg/kg), middle dose of ethyl 11-deoxy-18α-glycyrrhetinate group (120 mg/kg), low dose of ethyl 11-deoxy-18α-glycyrrhetinate group (60 mg/kg). […] The mice in model group were administered equal amount of 0.5% CMC-Na by gastric infusion.

[2] = tested on: BCG + LPS induced liver injury; assay: BCG+LPS induced liver injury in mice; type: in vivo, Kunming mice; conditions: for ALT / AST: 7 days
[3] = tested on: TAA induced acute liver injury; assay: TAA induced acute liver injury mouse model; type: in vivo, ICR male mice; set-up: Average grade of hepatocyte necrosis: scale not given here; conditions: for Grade of hepatocyte necrosis 0 (number of mice) / Grade of hepatocyte necrosis 1 (number of mice) / Grade of hepatocyte necrosis 2 (number of mice) / Grade of hepatocyte necrosis 3 (number of mice) / Grade of hepatocyte necrosis 4 (number of mice): N=10
Protocol: 50 ICR male mice were randomly divided into 5 groups of 10 mice in each group: the model group, diammonium glycyrrhizinate group (240 mg/kg), high dose of ethyl 11-deoxy-18α-glycyrrhetinate group (240 mg/kg), middle dose of ethyl 11-deoxy-18α-glycyrrhetinate group (120 mg/kg), and low dose of ethyl 11-deoxy-18α-glycyrrhetinate group (60 mg/kg). The mice in model group were administered equal amount of 0.5% CMC-Na by IG.

[4] = tested on: carrageenan-induced rat paw edema; assay: Carrageenan-induced rat paw swelling; type: in vivo, male SD rats
Protocol: Rat paw edema was induced by injecting carrageenan, and we observed the swelling to evaluate the anti-inflammatory effect. Wherein:
• Animals: male SD rats, 150-180 g; • Inflammatory Agent: carrageenan; • Test Medicine: ethyl 11-deoxy-18α-glycyrrhetinate was dissolved in 1% CMC-Na to get the desired concentration; • Positive Control Medicine: indomethacin was dissolved in 1% CMC-Na to get the desired concentration;
50 rats were randomly divided into 5 groups of 10 rats in each group: the model group, positive control group (administering indomethacin 10 mg/kg), various doses of the test medicine groups (30, 60, 120 mg/kg). The animals in each group were administered continuously for 3 days. Before the last administration, the volumes of the left hind feet of the rats were measured by micropipette method. Then the animals were administered the test medicines or CMC-Na by gastric infusion. 1 hour later, freshly prepared carrageenan was injected subcutaneously into left hind feet of the rats according to the dosage of 0.05 ml/paw by using a 0.25 ml syringe and NO. 4 needle. The volume of left hind feet of the rats was measured by the method mentioned above at time points of 1, 3, 4, 5 and 7 hours after administration, each point 2 times, and the average values were calculated. The difference of these values between before and after inflammation was called swelling degree.
Data was presented as x±s. T test of the average of two samples was used to compare the experimental data of each group. P<0.05 or P<0.01 was regarded to be statistically significant.

[5] = tested on: acetaminophen induced liver injury; assay: Acetaminophen induced liver injury in mice; type: in vivo; conditions: for ALT / AST: 10 days
Protocol: Ethyl 11-deoxy-18α-glycyrrhetinate: provided by traditional Chinese medicine laboratory, R&D center of Jiangsu Chia Tai Tianqing Pharmaceutical Co., Ltd. Bifendate pills: produced by Beijing Union Pharmaceutical factory. Daily dosage of human is 45 mg, used as the positive control medicine. Acetaminophen: produced by Jinzhou biochemical pharmaceutical factory. All medicines were prepared to desired concentrations with physiological saline according to the requirement of experiment. AST, ALT Kit: product of Nanjing Jiancheng bioengineering research institute.
60 mice were randomly divided into 6 groups: the normal control group, Bifendate group (positive medicine group), model control group, various doses of ethyl 11-deoxy-18α-glycyrrhetinate groups (240, 120, 60 mg/kg). After the animals were adaptively fed for 3 days, animals in each group were administered the medicines by gastric infusion for 10 days (one time/day). Animals in the normal control group and model group were administered 0.2 ml/mouse of physiological saline. 6 hours after the last administration, animals in each group, except the animals in normal control group, were intraperitoneally injected 400 mg kg-1 acetaminophen. After 12 hours, blood was taken by orbital bleeding. Activities of alanine aminotransferase (ALT), aspartate aminotransferase (AST) were measured. And T test of groups was performed, see table 7;

[6] = Table 1 experiment, 60 mg/kg IG, daily for 6 days
[7] = Table 1 experiment, 120 mg/kg IG, daily for 6 days
[8] = Table 1 experiment, 240 mg/kg IG, daily for 6 days
[9] = Table 2 experiment, 60 mg/kg IG, 7 days
[10] = Table 2 experiment, 120 mg/kg IG, 7 days
[11] = Table 2 experiment, 240 mg/kg IG, 7 days

CCOC(=O)C1(C)CCC2(C)CCC3(C)C(=CCC4C5(C)CCC(O)C(C)(C)C5CCC43C)C2C1 (stereo not drawn) [Ethyl 11-deoxy-18α-glycyrrhetinate, ethyl 11-deoxy-18α-glycyrrhetinate]
ALT [1, 6]: 833 ± 564 U/ml | ALT Inhibition % [1, 6]: 60% | AST [1, 6]: 777 ± 533 U/ml | AST Inhibition % [1, 6]: 60% | ALT [1, 7]: 474 ± 345 U/ml | ALT Inhibition % [1, 7]: 77% | AST [1, 7]: 414 ± 340 U/ml | AST Inhibition % [1, 7]: 79% | ALT [1, 8]: 311 ± 256 U/ml | ALT Inhibition % [1, 8]: 85% | AST [1, 8]: 317 ± 214 U/ml | AST Inhibition % [1, 8]: 84% | ALT [1, 9]: 767 ± 739 U/ml | ALT Inhibition % [1, 9]: 61% | AST [1, 9]: 353 ± 256 U/ml | AST Inhibition % [1, 9]: 69% | ALT [1, 10]: 452 ± 432 U/ml | ALT Inhibition % [1, 10]: 77% | AST [1, 10]: 292 ± 215 U/ml | AST Inhibition % [1, 10]: 74% | ALT [1, 11]: 372 ± 440 U/ml | ALT Inhibition % [1, 11]: 81% | AST [1, 11]: 266 ± 192 U/ml | AST Inhibition % [1, 11]: 77% | ALT ([2]; 60 mg/kg gastric infusion): 105.3 ± 18.61 U/L | AST ([2]; 60 mg/kg gastric infusion): 227.2 ± 59.7 U/L | ALT ([2]; 120 mg/kg gastric infusion): 108.7 ± 20.0 U/L | AST ([2]; 120 mg/kg gastric infusion): 190.1 ± 43.3 U/L | ALT ([2]; 240 mg/kg gastric infusion): 89.4 ± 13.2 U/L | AST ([2]; 240 mg/kg gastric infusion): 169.3 ± 38.4 U/L | Protection of liver and reduction of enzyme activity (in words) ([2]; mouse, in vivo): has good activity of protecting liver and reducing enzyme activity | ALT ([3]; 60 mg/kg IG): 1177 ± 701 U/ml | ALT Inhibition % ([3]; 60 mg/kg IG): 48% | AST ([3]; 60 mg/kg IG): 940 ± 582 U/ml | AST Inhibition % ([3]; 60 mg/kg IG): 45% | Average grade of hepatocyte necrosis ([3]; 60 mg/kg IG): 1.4* | Grade of hepatocyte necrosis 0 (number of mice) ([3]; 60 mg/kg IG): 1 | Grade of hepatocyte necrosis 1 (number of mice) ([3]; 60 mg/kg IG): 4 | Grade of hepatocyte necrosis 2 (number of mice) ([3]; 60 mg/kg IG): 5 | Grade of hepatocyte necrosis 3 (number of mice) ([3]; 60 mg/kg IG): 0 | Grade of hepatocyte necrosis 4 (number of mice) ([3]; 60 mg/kg IG): 0 | ALT ([3]; 120 mg/kg IG): 1117 ± 707 U/ml | ALT Inhibition % ([3]; 120 mg/kg IG): 51% | AST ([3]; 120 mg/kg IG): 823 ± 530 U/ml | AST Inhibition % ([3]; 120 mg/kg IG): 52% | Average grade of hepatocyte necrosis ([3]; 120 mg/kg IG): 1.3** | Grade of hepatocyte necrosis 0 (number of mice) ([3]; 120 mg/kg IG): 1 | Grade of hepatocyte necrosis 1 (number of mice) ([3]; 120 mg/kg IG): 5 | Grade of hepatocyte necrosis 2 (number of mice) ([3]; 120 mg/kg IG): 4 | Grade of hepatocyte necrosis 3 (number of mice) ([3]; 120 mg/kg IG): 0 | Grade of hepatocyte necrosis 4 (number of mice) ([3]; 120 mg/kg IG): 0 | ALT ([3]; 240 mg/kg IG): 992 ± 558 U/ml | ALT Inhibition % ([3]; 240 mg/kg IG): 56% | AST ([3]; 240 mg/kg IG): 738 ± 258 U/ml | AST Inhibition % ([3]; 240 mg/kg IG): 57% | Average grade of hepatocyte necrosis ([3]; 240 mg/kg IG): 1.2** | Grade of hepatocyte necrosis 0 (number of mice) ([3]; 240 mg/kg IG): 1 | Grade of hepatocyte necrosis 1 (number of mice) ([3]; 240 mg/kg IG): 6 | Grade of hepatocyte necrosis 2 (number of mice) ([3]; 240 mg/kg IG): 3 | Grade of hepatocyte necrosis 3 (number of mice) ([3]; 240 mg/kg IG): 0 | Grade of hepatocyte necrosis 4 (number of mice) ([3]; 240 mg/kg IG): 0 | Swelling degree of the feet after inflammation ([4]; 30 mg/kg gastric infusion, 1 h): 0.20 ± 0.10 mL | Swelling degree of the feet after inflammation ([4]; 30 mg/kg gastric infusion, 3 h): 0.27 ± 0.10 mL | Swelling degree of the feet after inflammation ([4]; 30 mg/kg gastric infusion, 4 h): 0.33 ± 0.11 mL | Swelling degree of the feet after inflammation ([4]; 30 mg/kg gastric infusion, 5 h): 0.39 ± 0.11 mL | Swelling degree of the feet after inflammation ([4]; 30 mg/kg gastric infusion, 7 h): 0.27 ± 0.12 mL | Swelling degree of the feet after inflammation ([4]; 60 mg/kg gastric infusion, 1 h): 0.17 ± 0.08 mL | Swelling degree of the feet after inflammation ([4]; 60 mg/kg gastric infusion, 3 h): 0.29 ± 0.15 mL | Swelling degree of the feet after inflammation ([4]; 60 mg/kg gastric infusion, 4 h): 0.37 ± 0.11 mL | Swelling degree of the feet after inflammation ([4]; 60 mg/kg gastric infusion, 5 h): 0.37 ± 0.07 mL | Swelling degree of the feet after inflammation ([4]; 60 mg/kg gastric infusion, 7 h): 0.29 ± 0.09 mL | Swelling degree of the feet after inflammation ([4]; 120 mg/kg gastric infusion, 1 h): 0.20 ± 0.05 mL | Swelling degree of the feet after inflammation ([4]; 120 mg/kg gastric infusion, 3 h): 0.32 ± 0.11 mL | Swelling degree of the feet after inflammation ([4]; 120 mg/kg gastric infusion, 4 h): 0.34 ± 0.09 mL | Swelling degree of the feet after inflammation ([4]; 120 mg/kg gastric infusion, 5 h): 0.42 ± 0.12 mL | Swelling degree of the feet after inflammation ([4]; 120 mg/kg gastric infusion, 7 h): 0.28 ± 0.09 mL | Inhibition of carrageenan-induced swelling of the rat feet (in words) ([4]; 30, 60, 120 mg/kg): began to inhibit the swelling of the rat feet induced by carrageenan after 4 hours | ALT ([5]; 60 mg/kg gastric infusion): 172.0 ± 39.8 U/L | AST ([5]; 60 mg/kg gastric infusion): 203.5 ± 55.4 U/L | ALT ([5]; 120 mg/kg gastric infusion): 133.3 ± 28.7 U/L | AST ([5]; 120 mg/kg gastric infusion): 158.1 ± 46.9 U/L | ALT ([5]; 240 mg/kg gastric infusion): 119.4 ± 15.2 U/L | AST ([5]; 240 mg/kg gastric infusion): 122.3 ± 28.0 U/L | Reduction of AST, ALT and protection against hepatocyte injury (in words) ([5]; mouse, in vivo): can reduce AST, ALT, and effectively protect against the acetaminophen induced hepatocyte injury
